Among the test systems are SF-539 CNS; NCI/ADR-RES ovarian; OVCAR-3 ovarian; NCI-H522 lung; HCT-15 colon; KM12 colon; IGROV1 ovarian; CCRF-CEM leukemia; NCI-H460 lung; A498 renal; OVCAR-8 ovarian; SK-MEL-2 melanoma; SNB-75 CNS; SW-620 colon; SK-MEL-28 melanoma; UO-31 renal; M14 melanoma; HT29 colon; SK-OV-3 ovarian.
Test in all cases: growth of human tumour cells (NCI), 48 h

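How tested: cells in 96-well plates exposed to compound for 48 hours at five concentrations. At the TGI there is no net growth.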 Where only a bound is given, the exact number is not on record here.

`O/N=C1/CC2(N3CCOCC3)C3CC/C(=N\O)C2CC1(Cc1ccccc1)C3` (configuration not stated): the TGI in the assay with SF-539 CNS, in the assay on NCI/ADR-RES ovarian, in the assay on OVCAR-3 ovarian, with NCI-H522 lung, with HCT-15 colon and in the assay with KM12 colon was > 100 µM throughout. Moreover, the TGI in the assay with IGROV1 ovarian, in the assay with CCRF-CEM leukemia, in the assay on NCI-H460 lung, with A498 renal, with OVCAR-8 ovarian and in the assay with SK-MEL-2 melanoma was > 100 µM throughout. Moreover, the TGI was 96 µM in the assay with SNB-75 CNS; > 100 µM with SW-620 colon; > 100 µM in the assay on SK-MEL-28 melanoma; > 100 µM with UO-31 renal; > 100 µM in the assay with M14 melanoma; > 100 µM in the assay with HT29 colon. Further, the TGI with SK-OV-3 ovarian is > 100 µM.

As for `O=C(CCc1ccccc1)n1cccc1CO`, the TGI in the assay with SF-539 CNS, in the assay on NCI/ADR-RES ovarian, with OVCAR-3 ovarian, in the assay with NCI-H522 lung, in the assay on HCT-15 colon and in the assay on KM12 colon was > 100 µM each time. For the same molecule, the TGI with IGROV1 ovarian, in the assay with CCRF-CEM leukemia, with NCI-H460 lung, in the assay with A498 renal, with OVCAR-8 ovarian and in the assay on SK-MEL-2 melanoma was > 100 µM each time. The TGI with SNB-75 CNS, with SW-620 colon, in the assay on SK-MEL-28 melanoma, in the assay with UO-31 renal, with M14 melanoma and with HT29 colon was > 100 µM each time. For the same molecule, the TGI in the assay with SK-OV-3 ovarian is > 100 µM.

With `O=S(=O)(SC1=NCCN1)c1cccc2ccccc12`, the TGI is 49.6 µM with SF-539 CNS; > 100 µM with NCI/ADR-RES ovarian; > 100 µM in the assay on OVCAR-3 ovarian; 36.2 µM in the assay on NCI-H522 lung; > 100 µM in the assay with HCT-15 colon; 45.1 µM in the assay with KM12 colon. Also, the TGI is 89.9 µM in the assay on IGROV1 ovarian; > 100 µM in the assay on CCRF-CEM leukemia; 84.3 µM with NCI-H460 lung; 89.7 µM in the assay with A498 renal; > 100 µM in the assay with OVCAR-8 ovarian; > 100 µM in the assay with SK-MEL-2 melanoma. In addition, the TGI with SNB-75 CNS is 46 µM; in the assay on SW-620 colon it was > 100 µM; with SK-MEL-28 melanoma, > 100 µM; with UO-31 renal, > 100 µM; in the assay with M14 melanoma, > 100 µM; in the assay with HT29 colon it was > 100 µM. The TGI in the assay with SK-OV-3 ovarian came to 45.7 µM.

As to `CCN(CC)C1C(=O)NC1C#Cc1ccccc1` (configuration not stated), the TGI with SF-539 CNS, in the assay with NCI/ADR-RES ovarian, in the assay with OVCAR-3 ovarian, in the assay on NCI-H522 lung, with HCT-15 colon and with KM12 colon was > 100 µM in each case. In addition, the TGI in the assay with IGROV1 ovarian, with CCRF-CEM leukemia, in the assay with NCI-H460 lung, with A498 renal, in the assay with OVCAR-8 ovarian and with SK-MEL-2 melanoma was > 100 µM each time. In addition, the TGI with SNB-75 CNS, in the assay with SW-620 colon, in the assay with SK-MEL-28 melanoma, in the assay on UO-31 renal, in the assay on M14 melanoma and in the assay on HT29 colon was > 100 µM throughout. Moreover, the TGI in the assay with SK-OV-3 ovarian was > 100 µM.

Take `COC(=O)C1Cc2ccc3c(c2C1=O)CCCC3` (configuration not stated): the TGI with SF-539 CNS, with NCI/ADR-RES ovarian, with OVCAR-3 ovarian, in the assay on NCI-H522 lung, with HCT-15 colon and in the assay with KM12 colon was > 100 µM each time. The TGI with IGROV1 ovarian, with CCRF-CEM leukemia, in the assay with NCI-H460 lung, with A498 renal, in the assay on OVCAR-8 ovarian and with SK-MEL-2 melanoma was > 100 µM in each case. Further, the TGI in the assay on SNB-75 CNS, in the assay on SW-620 colon, with SK-MEL-28 melanoma, in the assay on UO-31 renal, in the assay on M14 melanoma and with HT29 colon was > 100 µM throughout. For the same molecule, the TGI with SK-OV-3 ovarian was > 100 µM.

`O=c1[nH]nc(-c2ccccc2)n1/N=C/c1ccccc1Cl`: the TGI in the assay with SF-539 CNS was > 100 µM; in the assay with NCI/ADR-RES ovarian it was 67.9 µM; in the assay with OVCAR-3 ovarian it was 57.9 µM; with NCI-H522 lung, 43.9 µM; in the assay with HCT-15 colon, > 100 µM; in the assay with KM12 colon it was 32.6 µM. Moreover, the TGI is > 100 µM in the assay with IGROV1 ovarian; > 100 µM in the assay on CCRF-CEM leukemia; 32.2 µM in the assay on NCI-H460 lung; > 100 µM with A498 renal; > 100 µM in the assay with OVCAR-8 ovarian; 46.3 µM with SK-MEL-2 melanoma. For the same molecule, the TGI in the assay with SNB-75 CNS, in the assay with SW-620 colon, with SK-MEL-28 melanoma, in the assay with UO-31 renal, in the assay on M14 melanoma and in the assay on HT29 colon was > 100 µM in each case. For the same molecule, the TGI in the assay with SK-OV-3 ovarian is > 100 µM.

Take `O=c1cc(N=Nc2ccc(Cl)c(Cl)c2)[nH]c(=O)[nH]1`: the TGI was determined as 8.04 µM in the assay on SF-539 CNS; 3.93 µM with NCI/ADR-RES ovarian; 5.41 µM in the assay on OVCAR-3 ovarian; 2.81 µM with NCI-H522 lung; 3.31 µM with HCT-15 colon; 6.15 µM in the assay with KM12 colon. Also, the TGI amounted to 4.31 µM in the assay on IGROV1 ovarian; 0.495 µM with CCRF-CEM leukemia; 7.46 µM in the assay with NCI-H460 lung; 28.8 µM in the assay on A498 renal; 4.89 µM in the assay with OVCAR-8 ovarian; 12 µM in the assay with SK-MEL-2 melanoma. In addition, the TGI in the assay on SNB-75 CNS worked out at 22.5 µM; in the assay with SW-620 colon, 3.26 µM; in the assay with SK-MEL-28 melanoma, 3.3 µM; in the assay on UO-31 renal, 4.93 µM; in the assay with M14 melanoma, 4.08 µM; in the assay on HT29 colon, 3.13 µM. The TGI in the assay on SK-OV-3 ovarian came to 30 µM.

As to `Cc1ccnc2[nH]c(-c3ccc(F)cc3)cc(=O)c12`, the TGI is > 100 µM in the assay on SF-539 CNS; > 100 µM in the assay with NCI/ADR-RES ovarian; > 100 µM in the assay on OVCAR-3 ovarian; > 66.8 µM in the assay with NCI-H522 lung; > 100 µM in the assay on HCT-15 colon; > 100 µM in the assay with KM12 colon. Also, the TGI with IGROV1 ovarian is > 100 µM; with CCRF-CEM leukemia, > 100 µM; in the assay on NCI-H460 lung, > 60.4 µM; in the assay with A498 renal it was 97.9 µM; in the assay with OVCAR-8 ovarian, > 100 µM; in the assay with SK-MEL-2 melanoma, > 100 µM. In addition, the TGI was > 100 µM in the assay on SNB-75 CNS; > 100 µM in the assay on SW-620 colon; > 100 µM with SK-MEL-28 melanoma; > 100 µM with UO-31 renal; > 46.4 µM in the assay with M14 melanoma; > 100 µM with HT29 colon. For the same molecule, the TGI with SK-OV-3 ovarian is > 100 µM.

These data come from PubChem BioAssay (NCI).
